This note sets out measurements from PMC10790790, “Viscosity-dependent determinants of Campylobacter jejuni impacting the velocity of flagellar motility” (mBio, 2023).

In assay [1] the target is T1, CbrR (Campylobacter jejuni, UniProt Q0PAM5).
T1 construct: codon 2 to penultimate codon, C-terminal Myc-6xHis tag kept, pBAD/myc-HisA (pDAR6203), E. coli Top10
In words: DRaCALA on nitrocellulose. It counts as binding. Particulars: 10 mM Tris-HCl pH 8, 100 mM NaCl, 5 mM MgCl2.

For assay [2], the target named is T2, WspR (Pseudomonas aeruginosa, UniProt Q9HXT9).
T2 construct: codon 2 to penultimate codon, from pVL791, C-terminal Myc-6xHis tag kept, pBAD/myc-HisA (pDAR6535), E. coli Top10
T2 sequence (Q9HXT9 entry or part of it): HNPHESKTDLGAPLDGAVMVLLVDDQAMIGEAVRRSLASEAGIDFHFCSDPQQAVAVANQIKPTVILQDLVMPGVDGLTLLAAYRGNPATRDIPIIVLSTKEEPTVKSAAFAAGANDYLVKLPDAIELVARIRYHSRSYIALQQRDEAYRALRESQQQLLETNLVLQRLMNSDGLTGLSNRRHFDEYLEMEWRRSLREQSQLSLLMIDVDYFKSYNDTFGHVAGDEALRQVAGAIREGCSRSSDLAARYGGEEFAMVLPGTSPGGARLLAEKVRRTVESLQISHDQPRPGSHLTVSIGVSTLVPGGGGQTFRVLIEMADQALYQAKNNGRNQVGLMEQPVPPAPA
The assay can be described thus: DRaCALA on nitrocellulose; also TLC of c-di-GMP synthesis. In kind it is biochemical. The note with it: labelled compound ([alpha-32P]GTP); 10 mM Tris-HCl pH 8, 100 mM NaCl, 5 mM MgCl2 (DRaCALA); 10 mM MgCl2, room temperature (TLC).

Assay [3] deals with T2, WspR. The assay can be described thus: DRaCALA on nitrocellulose. In kind it is biochemical. The note with it: labelled compound ([32P]c-di-GMP made by WspR); 10 mM Tris-HCl pH 8, 100 mM NaCl, 5 mM MgCl2.

T1 sequence (Q0PAM5 entry or part of it): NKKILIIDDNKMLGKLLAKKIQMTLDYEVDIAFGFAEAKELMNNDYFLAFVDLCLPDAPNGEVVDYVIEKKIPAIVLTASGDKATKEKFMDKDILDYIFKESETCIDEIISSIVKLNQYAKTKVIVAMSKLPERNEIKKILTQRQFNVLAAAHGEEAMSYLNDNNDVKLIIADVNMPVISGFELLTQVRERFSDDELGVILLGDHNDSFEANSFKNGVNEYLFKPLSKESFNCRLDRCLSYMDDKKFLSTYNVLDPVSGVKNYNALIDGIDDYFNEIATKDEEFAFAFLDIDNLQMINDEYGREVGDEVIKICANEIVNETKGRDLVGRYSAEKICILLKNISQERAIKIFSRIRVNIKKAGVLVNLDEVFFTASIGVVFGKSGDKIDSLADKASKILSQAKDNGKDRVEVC

`Nc1nc2c(ncn2[C@@H]2O[C@H](COP(=O)(O)OP(=O)(O)OP(=O)(O)O)[C@@H](O)[C@H]2O)c(=O)[nH]1` [GTP]: the DRaCALA on nitrocellulose result in assay [1] (labelled compound ([alpha-32P]GTP)) is “recombinant WspR and CbrR bound both GTP and c-di-GMP, but VidA and VidB did not”. Besides, the “DRaCALA on nitrocellulose; also TLC of c-di-GMP synthesis” value in assay [2] was “recombinant WspR and CbrR bound both GTP and c-di-GMP, but VidA and VidB did not”.

Consider `Nc1nc2c(ncn2[C@@H]2O[C@@H]3COP(=O)(O)O[C@H]4[C@@H](O)[C@H](n5cnc6c(=O)[nH]c(N)nc65)O[C@@H]4COP(=O)(O)O[C@H]3[C@H]2O)c(=O)[nH]1` [c-di-GMP], for which the DRaCALA on nitrocellulose entry in assay [3] was “recombinant WspR and CbrR bound both GTP and c-di-GMP, but VidA and VidB did not”; in assay [1] (labelled compound ([32P]c-di-GMP made by WspR)), “recombinant WspR and CbrR bound both GTP and c-di-GMP, but VidA and VidB did not”.
